# Where two headings read alike, the source gives them in different places.
# Key:
# [1] = test system: plasma proteins; assay: Plasma protein binding by equilibrium dialysis (RED device), mouse plasma; assay type: in vitro ADME, BALB/c mice
# Method: (§1) Plasma protein binding was measured by equilibrium dialysis using a RED device (8 kDa molecular cutoff; Thermo Scientific, Rockford, IL, USA) containing plasma and buffer chambers for dialysis and a base plate. Two concentrations (0.5 and 5 mg/L) of 1599 and 1810 were prepared in mouse plasma from BALB/c mice and rat plasma from Sprague-Dawley rats, and an aliquot of 300 µL was added in the plasma chamber in duplicate. A 500 µL aliquot of PBS was added in the buffer chamber for dialysis. Then, the base plate was covered with sealing tape and incubated at 37 °C at approximately 100 rpm on an orbital shaker for 4 h to achieve equilibrium. After incubation, 50 µL of each sample was pipetted from the plasma and buffer chambers into separate micro-centrifuge tubes. A total of 50 µL of plasma was added to the buffer samples and an equal volume of PBS to the collected plasma samples and vortexed. Samples were processed by protein precipitation and analyzed for bound and unbound drug concentrations by liquid chromatography-tandem mass spectrometry (LC-MS/MS). Ranitidine (0.5 and 5 mg/L) was included as a positive control. The fraction of compound unbound to plasma proteins (fu) was calculated from the measured concentrations in the plasma and buffer chambers using the following equation:(1) fu=1−C(Plasma Chamber)−C(Buffer Chamber)/C(Plasma Chamber)
# [2] = test system: plasma proteins; assay: Plasma protein binding by equilibrium dialysis (RED device), rat plasma; assay type: in vitro ADME, Sprague-Dawley rats; conditions: 0.5 and 5 mg/L, 37 °C, 4 h
# Method: as §1
# [3] = test system: ELF proteins; assay: Fraction unbound in epithelial lining fluid calculated by Poulin and Theil equation, mouse; conditions: calculated from fu in plasma and albumin ratio plasma/ELF
# Method: (§2) For intravenous administration, the bolus dose was assumed to be mixed instantaneously into the venous blood. For subcutaneous administration, the dose was administered as an external compartment, absorbed into the venous compartment via a first-order absorption rate constant and a bioavailability component. For intrapulmonary aerosol administration, we have modified the lung tissue by adding the epithelial lining fluid (ELF) sub-compartment, as shown in Figure 2. The physiological volume of the ELF sub-compartment was obtained from the literature. The dose was administered as an external compartment, absorbed into the ELF compartment via a first-order absorption rate constant and a bioavailability component. The compound was assumed to be bound to the ELF proteins, and only the unbound fraction was distributed to the other sub-compartments of the lungs and ultimately to the systemic circulation. The fraction unbound in ELF was calculated from the fraction unbound in plasma and the albumin ratio between plasma and ELF using the equation described by Poulin and Theil.
# [4] = test system: ELF proteins; assay: Fraction unbound in epithelial lining fluid calculated by Poulin and Theil equation, rat; conditions: calculated from fu in plasma and albumin ratio plasma/ELF
# Method: as §2
# [5] = Integrated mouse and rat PBPK model, inter-animal variability; conditions: Intravenous Estimate (%RSE); simultaneous fit of mouse and rat plasma and tissue data
# [6] = Simcyp multicompartment lung and granuloma model simulation; conditions: Simcyp model input parameter (Table S1), human PBPK model
# [7] = Parallel artificial membrane permeability assay (PAMPA); assay type: in vitro ADME; conditions: passive permeability could not be determined
# [8] = Subcutaneous PBPK model predictions vs observed plasma concentrations in Mtb infected mice; assay type: in vivo, BALB/c mice; conditions: SC dose-ranging and dose-fractionation studies
# [9] = Mouse (20 g); BALB/c blood, 37 °C, 1 h
# Method: (§3) Fresh blood was collected from BALB/c mice and Sprague-Dawley rats via cardiac puncture in tubes with lithium heparin as anticoagulant. Hematocrit was measured using a VetScan HM5 hematology analyzer (Abaxis, Union City, CA, USA). […] Aliquots of pre-warmed whole blood and plasma were spiked with the test compounds and incubated at 37 °C. After 1 h of incubation, the incubated whole blood was removed, and the plasma was separated by centrifugation. Aliquots of the incubated control plasma were also removed after 1 h of incubation. Plasma samples were treated with 8 volumes of ice-cold methanol containing internal standard (100 ng/mL spectinomycin) and analyzed for drug concentrations by LC-MS/MS [12].
# (§4) The whole blood to plasma ratio k(b/p) was calculated by taking the ratio of the concentrations measured in the control plasma over the concentrations measured in the plasma centrifuged from the incubated whole blood, as shown in Equation (2). The erythrocyte to plasma partitioning coefficient k(RBC/p) was calculated from the whole blood to plasma ratio by accounting for the measured hematocrit, as shown in Equation (3):(2) k(b/p)=CCP/CP (3) k(RBC/p)=1+1/HCCP/CP−1 where CCP is the concentration of the test compound in the control plasma, CP is the concentration of the test compound in the plasma centrifuged from the incubated whole blood, and H is the measured hematocrit value.
# [10] = Rat (225 g); Sprague-Dawley blood, 37 °C, 1 h
# Method: as §3, §4
# [11] = healthy rats, plasma, IV SD 10 mg/kg
# Description: After the successful inter-route extrapolation of the model, we scaled the PBPK model between species by extending the model to rats. This was accomplished by incorporating the physiological parameters of a 225 g rat and updating the experimentally assessed drug-specific parameters k(b/p) and fu.
# [12] = cited from earlier work; for AUCinf Liver Observed / AUCinf Lung Observed / AUCinf Observed / AUCinf Spleen Observed: healthy mice; for AUCinf Observed: plasma
# [13] = healthy rats, plasma, IV SD 10 mg/kg; cited from earlier work
# [14] = test system: murine-lung-derived dendritic cells and a BALB/c-derived monocyte macrophage cell line; conditions: cited from earlier work
# [15] = Minimalistic PBPK model, mouse (fitting and simulation); conditions: for F Bioavailability component / Ka 1st order absorption rate constant / AUCinf Liver Fold Difference / AUCinf Lung Fold Difference / AUCinf Fold Difference (predicted vs observed) / AUCinf Spleen Fold Difference: healthy mice; for AUCinf Fold Difference (predicted vs observed): plasma
# [16] = Intratracheal Estimate (%RSE), intrapulmonary aerosol single dose 50 mg/kg
# [17] = Intravenous Estimate (%RSE), model fitted to IV single dose 10 mg/kg plasma and tissue data
compound,measurement,setting,value
"CN[C@@H]1[C@H](O)[C@H](NC)[C@H]2O[C@]3(O)[C@H](O[C@@H]2[C@H]1O)O[C@H](C)C[C@H]3NC(=O)Cc1ccc(Cl)cn1 [Spectinamide 1599, 2-(5-chloroypyridin-2-yl)-N-((2R,4R,4aS,5aR,6S,7S,8R,9S,9aR, 10aS)-4a,7,9-trihydroxy-2-methyl-6,8-bis(methyl-amino)decahydro-2H-benzo[b]pyrano [2,3-e] [1,4]dioxin-4-yl)acetamide]",fuPlasma fraction unbound in plasma,"[1]; Mouse plasma, 0.5 and 5 mg/L, 37 °C, 4 h",0.602
same,plasma protein binding,[1]; mouse and rat,low plasma protein binding
same,fuPlasma fraction unbound in plasma,[2],0.563
same,fuELF fraction unbound in epithelial lining fluid,[3],0.948
same,fuELF fraction unbound in epithelial lining fluid,[4],0.940
same,ω KI→CLiver inter-animal variability on KI→CLiver,[5],0.61 (29.8)
same,ω KI→CLung inter-animal variability on KI→CLung,[5],0.87 (30.6)
same,ω KI→COther inter-animal variability on KI→COthers,[5],0.48 (21.6)
same,ω KI→CSpleen inter-animal variability on KI→CSpleen,[5],0.66 (41.0)
same,CLR renal clearance,[6],3.27 L/h
same,PAMPA concentrations in the acceptor compartment,[7],below the limit of detection
same,difference in pharmacokinetics between healthy and infected mice,[8],no significant difference
same,k(b/p) blood to plasma ratio,[9],0.552
same,k(b/p) blood to plasma ratio,[10],0.812
same,AUCinf Fold Difference (predicted vs observed),[11],1.58
same,dose dependency of disposition,[12]; dose range of 10 to 400 mg/kg in mice,did not suggest any dose dependencies
same,AUCinf Liver Observed,[12]; IV QD5 10 mg/kg,19.6 µg·h/g
same,AUCinf Liver Observed,[12]; IV SD 10 mg/kg,19.9 µg·h/g
same,AUCinf Liver Observed,[12]; SC QD5 200 mg/kg,336 µg·h/g
same,AUCinf Liver Observed,[12]; SC SD 50 mg/kg,91.8 µg·h/g
same,AUCinf Lung Observed,[12]; IV QD5 10 mg/kg,4.05 µg·h/g
same,AUCinf Lung Observed,[12]; IV SD 10 mg/kg,3.79 µg·h/g
same,AUCinf Lung Observed,[12]; SC QD5 200 mg/kg,69.1 µg·h/g
same,AUCinf Lung Observed,[12]; SC SD 50 mg/kg,19.1 µg·h/g
same,AUCinf Observed,[12]; IPA BIW 50 mg/kg,14200 ng·h/mL
same,AUCinf Observed,[12]; IPA BIW 150 mg/kg,108000 ng·h/mL
same,AUCinf Observed,[12]; IPA QD5 10 mg/kg,3570 ng·h/mL
same,AUCinf Observed,[12]; IPA QD5 50 mg/kg,39800 ng·h/mL
same,AUCinf Observed,[12]; IPA QD5 150 mg/kg,96900 ng·h/mL
same,AUCinf Observed,[12]; IPA SD 10 mg/kg,5510 ng·h/mL
same,AUCinf Observed,[12]; IPA SD 50 mg/kg,23200 ng·h/mL
same,AUCinf Observed,[12]; IPA SD 150 mg/kg,59500 ng·h/mL
same,AUCinf Observed,[12]; IPA TIW 10 mg/kg,5360 ng·h/mL
same,AUCinf Observed,[12]; IPA TIW 50 mg/kg,24300 ng·h/mL
same,AUCinf Observed,[12]; IPA TIW 150 mg/kg,61700 ng·h/mL
same,AUCinf Observed,[12]; IV QD5 10 mg/kg,6370 ng·h/mL
same,AUCinf Observed,[12]; IV SD 10 mg/kg,7520 ng·h/mL
same,AUCinf Observed,[12]; SC QD5 200 mg/kg,227000 ng·h/mL
same,AUCinf Observed,[12]; SC SD 50 mg/kg,40400 ng·h/mL
same,AUCinf Spleen Observed,[12]; IV QD5 10 mg/kg,3.91 µg·h/g
same,AUCinf Spleen Observed,[12]; IV SD 10 mg/kg,3.42 µg·h/g
same,AUCinf Spleen Observed,[12]; SC QD5 200 mg/kg,110 µg·h/g
same,AUCinf Spleen Observed,[12]; SC SD 50 mg/kg,23.6 µg·h/g
same,AUCinf Observed,[13],19800 ng·h/mL
same,intracellular uptake,[14],concentration-dependent intracellular uptake
same,estimated absorption half-life,"[15]; IPA administration site, mice",~ 8 min
same,bioavailability,"[15]; IPA administration, mice",33%
same,F Bioavailability component,[15]; [16],0.33 (2.03)
same,Ka 1st order absorption rate constant,[15]; [16],5.03 (4.53)
same,KC→IKidney 1st order back flux from cellular sub compartment of the kidney,[15]; [17],0.15 (31.0) 1/h
same,KC→ILiver 1st order back flux from cellular sub compartment of the liver,[15]; [17],0.061 (13.7) 1/h
same,KC→ILung 1st order back flux from cellular sub compartment of the lung,[15]; [17],0.028 (41.5) 1/h
same,KC→ISpleen 1st order back flux from cellular sub compartment of the spleen,[15]; [17],0.01 (106) 1/h
same,KC→Iothers 1st order back flux from cellular sub compartment of the other tissues,[15]; [17],7.0 × 10^−5 (142) 1/h
same,F Bioavailability component,[15]; Subcutaneous Estimate (%RSE),0.86 (6.15)
same,Ka 1st order absorption rate constant,[15]; Subcutaneous Estimate (%RSE),4.36 (7.86)
same,AUCinf Liver Fold Difference,[15]; IV QD5 10 mg/kg,1.58
same,AUCinf Liver Fold Difference,[15]; IV SD 10 mg/kg,1.2
same,AUCinf Liver Fold Difference,[15]; SC QD5 200 mg/kg,1.55
same,AUCinf Liver Fold Difference,[15]; SC SD 50 mg/kg,1.3
same,AUCinf Lung Fold Difference,[15]; IV QD5 10 mg/kg,1.39
same,AUCinf Lung Fold Difference,[15]; IV SD 10 mg/kg,1.65
same,AUCinf Lung Fold Difference,[15]; SC QD5 200 mg/kg,1.42
same,AUCinf Lung Fold Difference,[15]; SC SD 50 mg/kg,1.41
same,AUCinf Fold Difference (predicted vs observed),[15]; IPA BIW 50 mg/kg,1.70
same,AUCinf Fold Difference (predicted vs observed),[15]; IPA BIW 150 mg/kg,1.49
same,AUCinf Fold Difference (predicted vs observed),[15]; IPA QD5 10 mg/kg,1.36
same,AUCinf Fold Difference (predicted vs observed),[15]; IPA QD5 50 mg/kg,1.64
same,AUCinf Fold Difference (predicted vs observed),[15]; IPA QD5 150 mg/kg,1.33
same,AUCinf Fold Difference (predicted vs observed),[15]; IPA SD 10 mg/kg,1.13
same,AUCinf Fold Difference (predicted vs observed),[15]; IPA SD 50 mg/kg,1.05
same,AUCinf Fold Difference (predicted vs observed),[15]; IPA SD 150 mg/kg,1.23
same,AUCinf Fold Difference (predicted vs observed),[15]; IPA TIW 10 mg/kg,1.11
same,AUCinf Fold Difference (predicted vs observed),[15]; IPA TIW 50 mg/kg,1.00
same,AUCinf Fold Difference (predicted vs observed),[15]; IPA TIW 150 mg/kg,1.18
same,AUCinf Fold Difference (predicted vs observed),[15]; IV QD5 10 mg/kg,1.39
same,AUCinf Fold Difference (predicted vs observed),[15]; IV SD 10 mg/kg,1.18
same,AUCinf Fold Difference (predicted vs observed),[15]; SC QD5 200 mg/kg,1.43
same,AUCinf Fold Difference (predicted vs observed),[15]; SC SD 50 mg/kg,1.02
same,AUCinf Spleen Fold Difference,[15]; IV QD5 10 mg/kg,1.44
same,AUCinf Spleen Fold Difference,[15]; IV SD 10 mg/kg,1.47
same,AUCinf Spleen Fold Difference,[15]; SC QD5 200 mg/kg,1.14
same,AUCinf Spleen Fold Difference,[15]; SC SD 50 mg/kg,1.11
same,estimated first-order absorption half-life,"[15]; subcutaneous administration site, mice",~ 10 min
same,bioavailability,"[15]; subcutaneous administration, mice",86%

# Reference: paper PMC10305115, “Development of a Minimalistic Physiologically Based Pharmacokinetic (mPBPK) Model for the Preclinical Development of Spectinamide Antibiotics” (Pharmaceutics, 2023)
